Results: the supplement of paper PMC10949913
Where “and” joins values, the source holds several entries; their conditions need not be identical. Identical values can stand only once.

Legend:
Test in all cases: area under concentration-response curve (viability) (AUC (a.u.)); higher = less active
Settings in all cases: 48 h
CU-ACC1 = system: CU-ACC1
How it was run: (§1)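 Three adrenocortical carcinoma cell lines were exposed for 48 h to library compounds at 11 concentrations in 1,536-well plates, then read by CellTiter-Glo luminescence. Signals were scaled per plate against vehicle and empty-well controls. From fitted concentration-response curves of inhibitory or non-responding classes alone, AC50 and area under the curve were obtained.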

NCI-H295R = system: NCI-H295R
How it was run: as §1

CU-ACC2 = system: CU-ACC2
How it was run: as §1

| SMILES | area under concentration-response curve (CU-ACC1) | area under concentration-response curve (NCI-H295R) | area under concentration-response curve (CU-ACC2) |
| --- | --- | --- | --- |
| F\C1=C\N(C2CCCO2)C(=O)NC1=O (centres undefined) | 512 | 511 | 612 |
| S=C1N\C=N/C2=C1[NH]C=N2 | 438 | 495 | 518 |
| O=C(Nc1nccs1)C(c1cc(F)ccc1O)N1Cc2ccccc2C1=O (centres undefined) | 504 | 524 | 557 |
| CCC(C)CNCC(=O)N1CCc2sccc2C1c1cccc(C)n1 (centres undefined) | 531 | 571 | 622 |
| C[C@](Cc1c[nH]c2ccccc12)(NC(=O)OC1C2CC3CC(C2)CC1C3)C(=O)NC[C@H](NC(=O)CCC(=O)O)c1ccccc1 (some centres undefined) | 510 | 537 | 582 |
| O=C(CCc1ccc(O)cc1)c1c(O)cc(O)cc1O | 531 | 585 | 653 |
| CC(C)C[C@H](NC(=O)[C@H](Cc1ccccc1)NC(=O)OCc1ccccc1)C(=O)C=O | 456 | 504 | 531 |
| CN1N(C2=CC=CC=C2)C(=O)C(=C1/C3=CC=CC=C3)/C(=O)C4=CC=C(C)C(=C4N)C5=CC=C6N=C(C)C=CC6=C5 | 531 | 553 | 634 |
| CN1\C(=C([O-])/C2=CC=CC=C2[S+]1([O-])=O)C(=O)NC3=NC=C(C)S3 | 479 | 525 | 572 |
| Cn1c(/C=C/CO)c(CO)c2c1C(=O)C=C(N1CC1)C2=O | 461 | 514 | 580 |
| CN1\C(=C(\O)C2=C(C=CS2)[S+]1([O-])=O)C(=O)NC3=CC=CC=N3 | 548 | 573 | 616 |
| NC(=O)c1ccc(-c2nc(-c3ccc4c(c3)OCO4)c(-c3ccccn3)[nH]2)cc1 | 286 | 509 | 633 |
| O=C(O)CNC(=O)c1ncc(-c2cccc(Cl)c2)cc1O | 486 | 516 | 568 |
| Cn1cc(-c2ccc(F)c(C(F)(F)F)c2)nc1C1CCN(c2ncnc3[nH]ncc23)CC1 | 471 | 510 | 555 |
| Cc1[nH]c(/C=C2\C(=O)Nc3ccccc32)c(C)c1CCC(=O)O | 496 | 480 | 535 |
| C[C@H]1CNCCCN1[S+](=O)([O-])c1cccc2cncc(F)c12 | 530 | 551 | 589 |
| CCN(CC)CCOc1ccc(Cc2ccccc2)cc1 | 454 | 503 | 526 |
| CC/1=C(/C(CC(=O)N1)C2=CC=C(C=C2)C(F)(F)F)C(=O)NC3=C(F)C=C4[NH]N=CC4=C3 (centres undefined) | 477 | 557 | 560 |
| C=CC(=O)N1CCC(CNc2ncnc(N)c2-c2ccc(Oc3ccccc3)cc2)CC1 | 550 | 566 | 615 |
| O=C1\C=C/C[C@@H]2[C@H]3CCCN4CCC[C@@H](CN12)[C@@H]34 | 541 | 546 | 509 |
| CCN(CC)CCN1C(=O)\C(=N/C2=CC=CC=C12)CC3=CC=C(OC)C=C3 | 472 | 501 | 526 |
| Nc1ncnc2c1C(=O)N(c1ccc([C@H]3CC[C@H](CC(=O)O)CC3)cc1)CCO2 | 497 | 509 | 554 |
| COc1cc2c(cc1OC)CC(=O)N(CCCN(C)C[C@H]1Cc3cc(OC)c(OC)cc31)CC2 | 486 | 542 | 601 |
| C[C@@H](c1ncncc1F)[C@](O)(Cn1cncn1)c1ccc(F)cc1F | 409 | 475 | 513 |

| SMILES | area under concentration-response curve (CU-ACC1) | area under concentration-response curve (NCI-H295R) | area under concentration-response curve (CU-ACC2) |
| --- | --- | --- | --- |
| C[N+](C)(C)CC(=O)O | 501 | 560 | 611 |
| O=P1(N(CCCl)CCCl)NCCCO1 (centres undefined) | 534 | 526 | 578 |
| O=C(O)CNC(=O)c1nc(Cl)c2ccccc2c1O | 498 | 529 | 604 |
| CN(C)CCOC(c1ccccc1)c1ccccc1 | 478 | 527 | 565 |
| NC[C@H]1CC[C@H](C(=O)O)CC1 | 497 | 452 | 586 |
| COC1=C(F)C(=CC=C1)C/2=C(C)/N(CC3=C(F)C=CC=C3C(F)(F)F)C(=O)N(C[C@H](NCCCC(O)=O)C4=CC=CC=C4)C2=O | 508 | 556 and 555 | 598 and 615 |
| CC1(C)[C@@H](O[C@H]2O[C@H](C(=O)O)[C@@H](O)[C@H](O)[C@H]2O[C@@H]2O[C@H](C(=O)O)[C@@H](O)[C@H](O)[C@H]2O)CC[C@]2(C)[C@H]3C(=O)C=C4[C@@H]5C[C@@](C)(C(=O)O)CC[C@]5(C)CC[C@@]4(C)[C@]3(C)CC[C@@H]12 | 541 | 567 | 522 |
| CC(C)[C@H](N)C(=O)OCCOC[N]1C=NC2=C1\N=C(N)/NC2=O | 449 | 390 | 394 |
| Cc1onc(-c2ccccc2)c1-c1ccc([S+](N)(=O)[O-])cc1 | 457 | 535 | 570 |
| C[C@H]1CN(C[C@@H](C)N1)C2=C(F)C3=C(C(=C2F)N)C(=O)\C(=C/N3C4CC4)C(O)=O | 512 | 537 | 503 |
| Cc1cnc(NC(=O)c2cc(Oc3cnc(C(=O)N(C)C)nc3)c3cc(C)oc3c2)cn1 | 564 | 594 | 643 |
| CCOC(=O)[C@H]1O[C@@H]1C(=O)N[C@@H](CC(C)C)C(=O)NCCC(C)C | 566 | 527 | 589 |
| O=C(Nc1ccc(-c2ccnc(Nc3ccc(N4CCOCC4)cc3)n2)cc1)C1CCCN1 (centres undefined) | 501 | 553 | 601 |
| CC1CCN(c2cc(N3CCN(C)CC3)ccc2NC(=O)c2cc(C#N)c[nH]2)CC1 | 542 | 544 | 600 |
| O=C1\C=C(OC2=C(C=CC=C12)C3=CC=CC4=C3SC5=C4C=CC=C5)\N6CCOCC6 | 374 | 497 | 557 |
| N[C@@H](CC(=O)N1CCn2c(nnc2C(F)(F)F)C1)Cc1cc(F)c(F)cc1F | 554 | 555 | 597 |
| C=C1[C@H](OC(=O)/C=C(\C)CC)C[C@@H](C(C)C)[C@@H]2[C@H]([C@@H](C)OC(C)=O)C(=O)C[C@@H]12 | 527 | 557 | 617 |
| CC(C)[C@H](O)C(=O)N[C@@H](C)C(=O)N[C@@H]1C(=O)N(C)CCc2ccccc21 | 522 | 575 | 577 |
| Cc1csc(NC(=O)c2sc3nc4c(c(C(F)(F)F)c3c2N)CCC4)n1 | 441 | 472 | 494 |
| COC1=CC=CC=C1C2=CC=CC(=C2)C/3=C(O)/C4=CC(=C(Cl)C=C4NC3=O)C#N | 542 | 562 | 589 |
| COc1cc(CNC(=O)CCCC/C=C/C(C)C)ccc1O | 542 | 599 | 653 |
| CC1=C(/C=C/C(C)=C/C=C/C(C)=C/C=C/C=C(C)/C=C/C=C(C)/C=C/C2=C(C)CCCC2(C)C)C(C)(C)CCC1 | 544 | 574 | 617 |
| Cn1cc(-c2ccc3ncc(Cc4ccc5ncccc5c4)n3n2)cn1 | 450 | 497 | 545 |
| CN1\C(=C(\O)C2=CC=CC=C2[S+]1([O-])=O)C(=O)NC3=NC=C(C)S3 | 461 | 511 | 523 |
